Results reported in PubChem BioAssay AID248 (DTP/NCI, 2004).
Where “and” joins values, the source holds several entries; their conditions need not be identical. Identical values can stand only once. Inconclusive results and toxic doses are left out. No stated cut-off is given here; in the data, active means T/C of 150% or more; inactive means T/C below 125%.

Test system: L1210 leukemia ip in BDF1 mice, survival T/C
Assay: NCI In Vivo Anticancer Drug Screen. Data for tumor model L1210 Leukemia (intraperitoneal) in B6D2F1 (BDF1) mice
Conditions: endpoint: mean survival time, higher = longer survival
Outline: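 Tumor cells were implanted, animals were treated, and survival was followed. The result divides the treated measurement by the vehicle-control measurement.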

[1] = dose: 100.0 mg/kg/injection, schedule: Q04DX003 (ip), vehicle: Klucel (hydroxypropylcellulose) (HPC)
[2] = dose: 200.0 mg/kg/injection, schedule: Q04DX003 (ip), vehicle: Klucel (hydroxypropylcellulose) (HPC)
[3] = dose: 400.0 mg/kg/injection, schedule: Q04DX003 (ip), vehicle: Klucel (hydroxypropylcellulose) (HPC)
[4] = dose: 100.0 mg/kg/injection, schedule: Q01DX009 (ip), vehicle: Klucel (hydroxypropylcellulose) (HPC)
[5] = dose: 200.0 mg/kg/injection, schedule: Q01DX009 (ip), vehicle: Klucel (hydroxypropylcellulose) (HPC)
[6] = dose: 400.0 mg/kg/injection, schedule: Q01DX009 (ip), vehicle: Klucel (hydroxypropylcellulose) (HPC)
[7] = dose: 100.0 mg/kg/injection, schedule: Q01DX001 (ip), vehicle: saline
[8] = dose: 200.0 mg/kg/injection, schedule: Q01DX001 (ip), vehicle: saline
[9] = dose: 400.0 mg/kg/injection, schedule: Q01DX001 (ip), vehicle: saline
[10] = dose: 50.0 mg/kg/injection, schedule: Q01DX009 (ip), vehicle: saline
[11] = dose: 50.0 mg/kg/injection, schedule: Q01DX009 (ip), vehicle: Klucel (hydroxypropylcellulose) (HPC)
[12] = dose: 100.0 mg/kg/injection, schedule: Q01DX009 (ip), vehicle: saline
[13] = dose: 100.0 mg/kg/injection, schedule: Q04DX003 (ip), vehicle: saline
[14] = dose: 200.0 mg/kg/injection, schedule: Q01DX009 (ip), vehicle: saline
[15] = dose: 200.0 mg/kg/injection, schedule: Q04DX003 (ip), vehicle: saline
[16] = dose: 400.0 mg/kg/injection, schedule: Q01DX009 (ip), vehicle: saline
[17] = dose: 400.0 mg/kg/injection, schedule: Q04DX003 (ip), vehicle: saline

Measured: T/C

Nc1ccc(CCC(=O)Nc2ccc(S(=O)(=O)F)cc2)c(Cl)c1
inactive: dose: 100.0 mg/kg/injection, schedule: Q01DX001 (ip), vehicle: saline with Tween-80 101 % of control | dose: 200.0 mg/kg/injection, schedule: Q01DX001 (ip), vehicle: saline with Tween-80 93 % of control | dose: 400.0 mg/kg/injection, schedule: Q01DX001 (ip), vehicle: saline with Tween-80 88 % of control

C=CCC1(C(C)C=C)C(=O)NC(=O)NC1=O (stereo unspecified)
inactive: dose: 75.0 mg/kg/injection, schedule: Q01DX001 (ip), vehicle: carboxymethylcellulose (CMC) 98 % of control | dose: 150.0 mg/kg/injection, schedule: Q01DX001 (ip), vehicle: carboxymethylcellulose (CMC) 91 % of control | dose: 300.0 mg/kg/injection, schedule: Q01DX001 (ip), vehicle: carboxymethylcellulose (CMC) 96 % of control

O=C1NC(c2ccccc2)(c2ccccc2)C(=O)N1CNc1ccc(Br)cc1
inactive: [1] 89 % of control | [2] 89 % of control | [3] 92 % of control

CC(C#N)(/C=C/c1ccccc1)Nc1ccccc1N (stereo unspecified)
inactive: [4] 95 % of control | [1] 94 % of control | [5] 95 % of control | [2] 98 % of control | [6] 96 % of control | [3] 93 % of control

Cc1cn(C2SC(CO)C(O)C2O)c(=O)[nH]c1=O (stereo unspecified)
inactive: dose: 50.0 mg/kg/injection, schedule: Q01DX001 (ip), vehicle: saline 97 % of control | [7] 105 % of control | [8] 100 % of control | [9] 100 % of control

NC(=O)OCCI
inactive: [10] 105 % of control | dose: 50.0 mg/kg/injection, schedule: Q04DX003 (ip), vehicle: other 101 % of control | dose: 100.0 mg/kg/injection, schedule: Q04DX003 (ip), vehicle: other 121 % of control | dose: 200.0 mg/kg/injection, schedule: Q04DX003 (ip), vehicle: other 119 % of control

O=C(Nc1ccc2ccccc2c1)c1ccccc1Cl
inactive: [4] 93 % of control | [5] 101 % of control | [6] 101 % of control

C=C(NC(C)=O)C(O)c1ccc([N+](=O)[O-])cc1 (stereo unspecified)
inactive: dose: 50.0 mg/kg/injection, schedule: Q01DX001 (ip), vehicle: carboxymethylcellulose (CMC) 96 % of control | dose: 100.0 mg/kg/injection, schedule: Q01DX001 (ip), vehicle: carboxymethylcellulose (CMC) 100 % of control and 90 % of control | [4] 95 % of control | [1] 101 % of control | dose: 200.0 mg/kg/injection, schedule: Q01DX001 (ip), vehicle: carboxymethylcellulose (CMC) 94 % of control and 97 % of control | [5] 93 % of control | [2] 98 % of control | dose: 400.0 mg/kg/injection, schedule: Q01DX001 (ip), vehicle: carboxymethylcellulose (CMC) 100 % of control and 87 % of control | [6] 95 % of control | [3] 95 % of control

Clc1cccc(NC(c2ccccc2)=[N+]2CCCCC2)c1
inactive: dose: 100.0 mg/kg/injection, schedule: Q04DX002 (ip), vehicle: Klucel (hydroxypropylcellulose) (HPC) 95 % of control | dose: 200.0 mg/kg/injection, schedule: Q04DX002 (ip), vehicle: Klucel (hydroxypropylcellulose) (HPC) 106 % of control | dose: 400.0 mg/kg/injection, schedule: Q04DX002 (ip), vehicle: Klucel (hydroxypropylcellulose) (HPC) 113 % of control

Clc1ccc(C[P+](c2ccccc2)(c2ccccc2)c2ccccc2)cc1Cl
inactive: dose: 0.62 mg/kg/injection, schedule: Q01DX009 (ip), vehicle: acetone 98 % of control | dose: 1.25 mg/kg/injection, schedule: Q01DX009 (ip), vehicle: acetone 101 % of control | dose: 2.5 mg/kg/injection, schedule: Q01DX009 (ip), vehicle: acetone 101 % of control | dose: 2.5 mg/kg/injection, schedule: Q04DX003 (ip), vehicle: acetone 94 % of control | dose: 3.6 mg/kg/injection, schedule: Q01DX009 (ip), vehicle: saline with Tween-80 97 % of control | dose: 5.0 mg/kg/injection, schedule: Q01DX001 (ip), vehicle: acetone 90 % of control | dose: 5.6 mg/kg/injection, schedule: Q01DX009 (ip), vehicle: saline with Tween-80 106 % of control | dose: 8.4 mg/kg/injection, schedule: Q01DX009 (ip), vehicle: saline with Tween-80 102 % of control | dose: 10.0 mg/kg/injection, schedule: Q01DX001 (ip), vehicle: acetone 97 % of control

CCOC(=O)C1C(=O)C(C(C(=O)OC2CC(C)CCC2C(C)C)N(CCCl)CCCl)C(=O)C(C(=O)OCC)C1c1ccc(O)cc1 (stereo unspecified)
inactive: [11] 104 % of control | [4] 104 % of control | [5] 101 % of control

COc1ccccc1C(=O)N/N=C/c1ccc(O)cc1
inactive: [4] 101 % of control | [5] 97 % of control | [6] 94 % of control

S=c1cccn[nH]1
inactive: dose: 59.0 mg/kg/injection, schedule: Q01DX009 (ip), vehicle: other 93 % of control and 101 % of control | dose: 89.0 mg/kg/injection, schedule: Q01DX009 (ip), vehicle: other 96 % of control and 99 % of control | dose: 133.0 mg/kg/injection, schedule: Q01DX009 (ip), vehicle: other 94 % of control and 100 % of control | dose: 300.0 mg/kg/injection, schedule: Q01DX009 (ip), vehicle: other 96 % of control and 90 % of control
active: dose: 12.5 mg/kg/injection, schedule: Q01DX009 (ip), vehicle: other 459 % of control | dose: 25.0 mg/kg/injection, schedule: Q01DX009 (ip), vehicle: other 459 % of control | dose: 50.0 mg/kg/injection, schedule: Q01DX009 (ip), vehicle: other 406 % of control | dose: 100.0 mg/kg/injection, schedule: Q01DX009 (ip), vehicle: other 341 % of control

CC1CNC(=O)O1 (stereo unspecified)
inactive: dose: 25.0 mg/kg/injection, schedule: Q01DX009 (ip), vehicle: saline 97 % of control | [10] 97 % of control | dose: 50.0 mg/kg/injection, schedule: Q04DX003 (ip), vehicle: saline 106 % of control | [12] 98 % of control | dose: 100.0 mg/kg/injection, schedule: Q04DX002 (ip), vehicle: saline 100 % of control | [13] 106 % of control | [14] 95 % of control | dose: 200.0 mg/kg/injection, schedule: Q04DX002 (ip), vehicle: saline 91 % of control | [15] 101 % of control | [16] 95 % of control | dose: 400.0 mg/kg/injection, schedule: Q04DX002 (ip), vehicle: saline 91 % of control | [17] 100 % of control

COc1cc(Oc2ccc(OC)c(OC)c2)c(C=O)cc1Br
inactive: dose: 100.0 mg/kg/injection, schedule: Q04DX003 (ip), vehicle: acetone 96 % of control | dose: 200.0 mg/kg/injection, schedule: Q04DX003 (ip), vehicle: acetone 97 % of control | dose: 400.0 mg/kg/injection, schedule: Q04DX003 (ip), vehicle: acetone 97 % of control

CCN(CC)c1ccc(C2NC(=O)c3ccccc3N2)cc1 (stereo unspecified)
inactive: [11] 106 % of control and 108 % of control | [4] 116 % of control | dose: 150.0 mg/kg/injection, schedule: Q01DX009 (ip), vehicle: Klucel (hydroxypropylcellulose) (HPC) 104 % of control and 117 % of control

O=c1[nH]c(=O)c2[nH]c(N=Nc3ccc(S(=O)(=O)N(CCCl)CCCl)cc3)nc2[nH]1
inactive: [11] 97 % of control | [4] 92 % of control | [5] 94 % of control

C=C(NC(=O)COc1ccccc1)C(=O)O
inactive: [12] 103 % of control | [13] 116 % of control | [14] 90 % of control | [15] 97 % of control | [17] 100 % of control

CCOC(=O)CCCNCCCC(=O)OCC
inactive: [7] 97 % of control | [8] 103 % of control | [9] 114 % of control

CC(=O)NC(=O)NC(C)=O
inactive: [7] 95 % of control | [12] 100 % of control | [13] 99 % of control | [8] 94 % of control | [14] 105 % of control | [15] 97 % of control | [9] 97 % of control | [16] 95 % of control | [17] 100 % of control

CCC/C=N/NC(=O)CCCCCCCCCCCCCCCCC
inactive: [4] 86 % of control | [5] 88 % of control | [6] 88 % of control

COc1ccc(CC2=NNC(Cc3ccc(OC)c(OC)c3)=NN2)cc1OC
inactive: dose: 100.0 mg/kg/injection, schedule: Q04DX003 (ip), vehicle: saline with Tween-80 91 % of control | dose: 200.0 mg/kg/injection, schedule: Q04DX003 (ip), vehicle: saline with Tween-80 91 % of control | dose: 400.0 mg/kg/injection, schedule: Q04DX003 (ip), vehicle: saline with Tween-80 93 % of control
